Measured values: ChEMBL document CHEMBL4414585, “Inhibition Mechanisms of Indoleamine 2,3-Dioxygenase 1 (IDO1)” (J Med Chem, 2019)
Calls of active or inactive are those of the source. The rule behind the calls is not given here.

Legend:
[1] = target: T1, Indoleamine 2,3-dioxygenase 1 (Homo sapiens, UniProt P14902); details: 20 to 40 uM
Target sequence in this assay (P14902 whole entry, looked up): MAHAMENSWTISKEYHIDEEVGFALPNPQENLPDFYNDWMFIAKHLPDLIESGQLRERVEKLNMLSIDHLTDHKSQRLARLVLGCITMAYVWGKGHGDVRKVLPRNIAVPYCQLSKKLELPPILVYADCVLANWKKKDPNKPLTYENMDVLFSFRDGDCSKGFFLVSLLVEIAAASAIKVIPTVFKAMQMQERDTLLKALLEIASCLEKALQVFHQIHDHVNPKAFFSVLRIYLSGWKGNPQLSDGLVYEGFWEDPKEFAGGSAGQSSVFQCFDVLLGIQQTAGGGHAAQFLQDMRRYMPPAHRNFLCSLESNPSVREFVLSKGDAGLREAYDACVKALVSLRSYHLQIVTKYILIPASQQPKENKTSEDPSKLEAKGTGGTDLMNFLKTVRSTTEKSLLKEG
Description: Inhibition of full-length human IDO1 expressed in Escherichia coli Rosetta (DE3) assessed as reduction in kynurenine production at 20 to 40 uM pre-incubated for 120 mins before L-Trp addition in presence of ascorbate and MB reductants and catalase by HPLC analysis relative to control

[2] = target: T1, Indoleamine 2,3-dioxygenase 1; details: 20 to 40 uM; remark: listed apart in the source
Target sequence in this assay (P14902 whole entry, looked up): as above
Description: Inhibition of full-length human IDO1 expressed in Escherichia coli Rosetta (DE3) assessed as reduction in kynurenine production at 20 to 40 uM pre-incubated for 120 mins before L-Trp addition in presence of ascorbate and MB reductants by HPLC analysis relative to control

[3] = target: T1, Indoleamine 2,3-dioxygenase 1; details: 20 to 40 uM; remark: listed apart in the source
Target sequence in this assay (P14902 whole entry, looked up): as above
Description: Inhibition of full-length human IDO1 expressed in Escherichia coli Rosetta (DE3) assessed as reduction in kynurenine production at 20 to 40 uM pre-incubated for 120 mins before jump dilution with incubation medium containing L-Trp and further incubated for 20 mins by HPLC analysis

[4] = target: T1, Indoleamine 2,3-dioxygenase 1; details: 20 uM
Target sequence in this assay (P14902 whole entry, looked up): as above
Description: Inhibition of full-length human IDO1 expressed in Escherichia coli Rosetta (DE3) assessed as reduction in kynurenine production at 20 uM pre-incubated for 120 mins before L-Trp addition by HPLC analysis relative to control

[5] = target: T1, Indoleamine 2,3-dioxygenase 1; details: 40 uM
Target sequence in this assay (P14902 whole entry, looked up): as above
Description: Inhibition of full-length human IDO1 expressed in Escherichia coli Rosetta (DE3) assessed as reduction in kynurenine production at 40 uM pre-incubated for 120 mins before L-Trp addition by HPLC analysis relative to control

[6] = target: T1, Indoleamine 2,3-dioxygenase 1; experiment: Binding affinity to human IDO1 expressed in Escherichia coli Rosetta (DE3) assessed induction of shift in Soret peak in phosphate buffer at 200 uM in presence of ascorbate and MB reductants measured over 4 hrs by UV-vis absorption spectroscopy
Target sequence in this assay (P14902 whole entry, looked up): as above

[7] = target: T1, Indoleamine 2,3-dioxygenase 1; experiment: Binding affinity to human IDO1 expressed in Escherichia coli Rosetta (DE3) assessed induction of shift in Soret peak in phosphate buffer at 200 uM measured over 4 hrs by UV-vis absorption spectroscopy
[8] = target: T1, Indoleamine 2,3-dioxygenase 1; experiment: (§1) Inhibition of full-length human IDO1 expressed in Escherichia coli Rosetta (DE3) assessed as reduction in kynurenine production at 0.5 to 2.5 uM pre-incubated for 120 mins before jump dilution with incubation medium containing L-Trp and further incubated for 20 mins by HPLC analysis
[9] = target: T1, Indoleamine 2,3-dioxygenase 1; experiment: as §1, with “120 mins in presence of ascorbate and MB reductants before jump” for “120 mins before jump”
[10] = target: T1, Indoleamine 2,3-dioxygenase 1; experiment: as §1, with “120 mins in presence of ascorbate and MB reductants and catalase before jump” for “120 mins before jump”
[11] = Dissociation constant, pKa of the compound; type: physicochemical
[12] = target: T1, Indoleamine 2,3-dioxygenase 1; experiment: as §1, with “0.5 to 1 uM pre-incubated” for “0.5 to 2.5 uM pre-incubated”, “120 mins in presence of ascorbate and MB reductants before jump” for “120 mins before jump”
[13] = target: T1, Indoleamine 2,3-dioxygenase 1; experiment: as §1, with “0.5 to 1 uM pre-incubated” for “0.5 to 2.5 uM pre-incubated”, “120 mins in presence of ascorbate and MB reductants and catalase before jump” for “120 mins before jump”
[14] = target: T1, Indoleamine 2,3-dioxygenase 1; experiment: Inhibition of full-length human IDO1 expressed in Escherichia coli Rosetta (DE3) assessed as reduction in kynurenine production at 0.5 to 1 uM pre-incubated for 120 mins before jump dilution with incubation medium containing L-Trp and further incubated for 20 mins by HPLC analysis
[15] = target: T1, Indoleamine 2,3-dioxygenase 1; experiment: Inhibition of IDO1 in IFNgamma-induced human HeLa cells incubated for 5 hrs by Ehrlich's reagent based assay; type: cell-based
Target sequence in this assay (P14902 whole entry): as the sequence (P14902 whole entry, looked up) above

[16] = target: T1, Indoleamine 2,3-dioxygenase 1; experiment: Inhibition of purified human recombinant IDO1 expressed in Escherichia coli assessed as reduction in kynurenine production incubated up to 90 mins using L-Trp substrate by Ehrlich's reagent based spectrophotometry
Target sequence in this assay (P14902 whole entry): as the sequence (P14902 whole entry, looked up) above

[17] = target: T1, Indoleamine 2,3-dioxygenase 1; experiment: Binding affinity to human IDO1 expressed in Escherichia coli Rosetta (DE3) assessed complete protection against heme degradation at 200 uM in presence of ascorbate and MB reductants measured at 45 mins by UV-vis absorption spectroscopy
[18] = target: T1, Indoleamine 2,3-dioxygenase 1; experiment: Selectivity ratio of IC50 for inhibition of IDO1 (unknown origin) by enzymatic assay to IC50 for inhibition of IDO1 (unknown origin) by cell based assay
[19] = target: T1, Indoleamine 2,3-dioxygenase 1; experiment: (§2) Inhibition of full-length human IDO1 expressed in Escherichia coli Rosetta (DE3) assessed as enzyme activity by measuring kynurenine production at 40 to 200 uM pre-incubated for 120 mins in presence of ascorbate and MB reductants before jump dilution with incubation medium containing L-Trp and further incubated for 20 mins by HPLC analysis; design: scale not given: the % may be the effect or the level left
[20] = target: T1, Indoleamine 2,3-dioxygenase 1; experiment: Inhibition of full-length human IDO1 expressed in Escherichia coli Rosetta (DE3) using L-Trp substrate by HPLC analysis
Target sequence in this assay (P14902 whole entry): as the sequence (P14902 whole entry, looked up) above

[21] = target: T1, Indoleamine 2,3-dioxygenase 1; experiment: Inhibition of IDO1 (unknown origin) by cell based assay
Target sequence in this assay (P14902 whole entry): as the sequence (P14902 whole entry, looked up) above

[22] = target: T1, Indoleamine 2,3-dioxygenase 1; experiment: Inhibition of full-length human IDO1 expressed in Escherichia coli Rosetta (DE3) assessed as reduction in kynurenine production at 40 to 200 uM pre-incubated for 120 mins before jump dilution with incubation medium containing L-Trp and further incubated for 20 mins by HPLC analysis
[23] = target: T1, Indoleamine 2,3-dioxygenase 1; experiment: Inhibition of IDO1 (unknown origin) by enzymatic assay
Target sequence in this assay (P14902 whole entry): as the sequence (P14902 whole entry, looked up) above

[24] = target: T1, Indoleamine 2,3-dioxygenase 1; experiment: Binding affinity to human IDO1 expressed in Escherichia coli Rosetta (DE3) assessed induction of shift in Soret peak in phosphate buffer at 200 uM in presence of ascorbate and MB reductants measured over 60 mins by UV-vis absorption spectroscopy (reference value: […] nm)
[25] = target: T1, Indoleamine 2,3-dioxygenase 1; experiment: as §2, with “reductants and catalase” for “reductants”

Nc1nonc1/C(=N/O)Nc1ccc(F)c(Cl)c1
inhibition [1]: 100% | inhibition [2]: 100% | inhibition [3]: Active | inhibition [4]: 82% | inhibition [5]: 65%

CC1=CC(=O)c2ccccc2C1=O
Activity [6]: inactive | Activity [7]: inactive | inhibition [8]: Active | inhibition [9]: Active | inhibition [10]: inactive

Oc1ccc(Cl)cc1-c1c[nH]nn1
pKa [11]: 8.3

CC1(C)CCC2=C(O1)c1ccccc1C(=O)C2=O [LAPACHONE]
Activity [6]: inactive | Activity [7]: inactive | inhibition [12]: Active | inhibition [13]: inactive | inhibition [14]: Active | IC50 [15]: 1 µM | IC50 [16]: 0.44 µM

Clc1ccc(Nc2cn[nH]n2)cc1
Activity [17]: inactive | Ratio IC50 [18]: 500 | Activity [19]: 0% | IC50 [20]: 70 µM | IC50 [21]: 0.023 µM | inhibition [22]: Active | IC50 [23]: 11.3 µM | Activity [24]: 425 nm | inhibition [25]: inactive
